# From patent publication US9115166B2, “Rebaudioside A derivative products and methods for making” (The Coca-Cola Company, priority 2008, dated 2015)
# Marks after values point to notes of the source that are not given here.
# What was measured:
# [1] = Quality of sweetness: sensory attributes scored on a 15-point unstructured line scale; format: in vivo; set-up: key to Stale Flavor / Metallic Flavor / Mouth Numbing / Mouthburn / Stale Aftertaste / Metallic Aftertaste / Overall Aroma / Sweet Aromatic Aroma / Stale Aroma: scores on a 15-point unstructured line scale; details: for Metallic Aftertaste / Metallic Flavor / Mouth Numbing / Mouthburn / Stale Flavor / Overall Aroma / Stale Aftertaste / Stale Aroma / Sweet Aromatic Aroma / Astringency / Bitterness / Bitterness Aftertaste / Black Licorice Aftertaste / Black Licorice Flavor / Cooling / Overall Aftertaste / Overall Flavor / Sweet Aromatic Aftertaste / Sweet Aromatic Flavor / Sweetness / Sweetness Aftertaste: mean score, 15-point line scale, two replications, room temperature; for Overall Aroma / Stale Aftertaste / Stale Aroma / Sweet Aromatic Aroma: more than 50% of responses zero; for Astringency / Bitterness / Bitterness Aftertaste / Black Licorice Aftertaste / Black Licorice Flavor / Cooling / Overall Aftertaste / Overall Flavor / Sweet Aromatic Aftertaste / Sweet Aromatic Flavor / Sweetness / Sweetness Aftertaste: same superscript letter = not significantly different (95%)
# Procedure: The quality of sweetness of the rebaudioside A derivative products 1 (II), 2 (IV), 3 (III), and 4 (V) also was evaluated and compared to that of rebaudioside A, rebaudioside B, rebaudioside F, and sucrose at room temperature. For each attribute, the sweeteners received a score based on a 15-point unstructured line scale. […] A multiple comparison test, Fisher's LSD 5%, aided in the comparative analysis of the scores.
# [2] = Sweetness intensity of a water sample of derivative product compared with a water sample of sucrose (Example 4); format: in vivo; details: for Sweetness Intensity of Derivative Product (as compared to equivalent amount of sucrose): in water, amount of sample by weight: 1 (II) 3.6 %, 2 (IV) 1.1 %, 3 (III) 9.7 %, 4 (V) 6 %
# Procedure: The sweetness intensity of the foregoing rebaudioside A derivative products was analyzed by comparing the sweetness intensity of a water sample having a particular amount of sucrose with a second water sample having an identical amount of a rebaudioside A derivative product.
# [3] = Sweetness potency of derivative products compared to sucrose at iso-sweetness levels (Example 1); details: in vivo
# From the text: These rebaudioside A derivative products were characterized as having an intense sweetening potency. […] Thus, the rebaudioside A derivative products are suitable for use as sweeteners for sweetenable compositions.
Compound,Metallic Aftertaste [1],Metallic Flavor [1],Mouth Numbing [1],Mouthburn [1],Stale Flavor [1],Overall Aroma [1],Stale Aftertaste [1],Stale Aroma [1],Sweet Aromatic Aroma [1],Astringency [1],Bitterness [1],Bitterness Aftertaste [1],Black Licorice Aftertaste [1],Black Licorice Flavor [1],Cooling [1],Overall Aftertaste [1],Overall Flavor [1],Sweet Aromatic Aftertaste [1],Sweet Aromatic Flavor [1],Sweetness [1],further results
"CC1(C(=O)OC2OC(CO)C(O)C(O)C2O)CCCC2(C)C3CCC4(OC5OC(CO)C(O)C(OC6OC(CO)C(O)C(O)C6O)C5OC5OC(CO)C(O)C(O)C5O)CC3(CCC12)CC4(C)O [Derivative Product 1 (II), 13-[(2-O-β-D-glucopyranosyl-3-O-β-D-glucopyranosyl-β-D-glucopyranosyl)oxy]-16-hydroxy kauran-18-oic acid β-D-glucopyranosyl ester]",0.67,0.71,0.38,1.11,1.01,0.17,0.56,0.10,0.04,2.38^c,2.28^bcd,1.32^cd,0.00^c,0.00^d,0.29^bc,2.18^d,3.14^c,0.09^d,0.06^c,1.54^d,"Sweetness Aftertaste [1]: 0.70^d; Sweetness Intensity of Derivative Product (as compared to equivalent amount of sucrose) [2]: 30; sweetness intensity, times that of sucrose ([2]; water solution vs same weight percentage of sucrose, 3.6 weight percent for 1 (II)): at least 30 times"
"CC1=CC23CCC4C(C)(C(=O)OC5OC(CO)C(O)C(O)C5O)CCCC4(C)C2CCC1(OC1OC(CO)C(O)C(OC2OC(CO)C(O)C(O)C2O)C1OC1OC(CO)C(O)C(O)C1O)C3 [Derivative Product 2 (IV), 13-[(2-O-β-D-glucopyranosyl-3-O-β-D-glucopyranosyl-β-D-glucopyranosyl)oxy]kaur-15-en-18-oic acid β-D-glucopyranosyl ester]",0.88,0.82,0.97,1.45,1.21,0.09,0.74,0.06,0.00,2.90^ab,2.86^ab,1.82^ab,0.00^c,0.07^d,0.12^c,2.35^d,3.58^c,0.20^cd,0.19^bc,1.14^d,"characteristics which were not significantly different from sucrose (number) ([1]; Fisher's LSD 5%, 95% confidence level): 8; overall flavor and sweetness relative to sucrose ([1]; in vivo): comparable to sucrose; Sweetness Aftertaste [1]: 0.41^d; Sweetness Intensity of Derivative Product (as compared to equivalent amount of sucrose) [2]: 20"
"CC1(C(=O)O)CCCC2(C)C3CCC4(OC5OC(CO)C(O)C(OC6OC(CO)C(O)C(O)C6O)C5OC5OC(CO)C(O)C(O)C5O)CC3(CCC12)CC4(C)O [Derivative Product 3 (III), 13-[(2-O-β-D-glucopyranosyl-3-O-β-D-glucopyranosyl-β-D-glucopyranosyl)oxy]-16-hydroxy kauran-18-oic acid]",0.83,1.02,1.09,1.15,0.63,0.09,0.41,0.00,0.08,3.27^a,2.90^ab,1.75^abc,1.37^a,1.84^ab,0.57^b,5.72^ab,10.02^a,0.68^abc,0.77^ab,9.73^a,taste quality [3]: sweet clean taste similar to sugar; Sweetness Aftertaste [1]: 5.38^ab; Sweetness Intensity of Derivative Product (as compared to equivalent amount of sucrose) [2]: 190
"C=C1C[C@@]23CC[C@H]4[C@@](C)(CCC[C@@]4(C)C(=O)OC4OC(CO)C(O)C(O)C4O)[C@@H]2CC[C@]1(OC1OC(CO)C(O)C(OC2OC(CO)C(O)C(O)C2O)C1OC1OC(CO)C(O)C(O)C1O)C3 (stereo partly shown) [Reb. A, Rebaudioside A]",0.80,0.97,0.76,1.29,0.89,0.16,0.48,0.00,0.14,3.14^ab,3.43^a,2.21^a,1.47^a,2.31^a,1.10^a,6.34^a,9.88^a,0.50^bcd,0.71^ab,9.59^a,Sweetness Aftertaste [1]: 5.91^a
"OC[C@H]1O[C@@](CO)(O[C@H]2O[C@H](CO)[C@@H](O)[C@H](O)[C@H]2O)[C@@H](O)[C@@H]1O [Sucrose, sucrose, reference compound]",0.67,1.04,0.57,1.06,0.50,0.40,0.58,0.11,0.24,3.03^ab,1.47^e,0.97^d,0.26^c,0.13^d,0.38^bc,5.05^b,10.73^a,1.01^a,1.12^a,10.45^a,Sweetness Aftertaste [1]: 4.76^b
"rebaudioside B [Reb. B, reference compound]",0.47,0.82,0.54,0.97,0.92,0.28,0.63,0.26,0.00,2.79^bc,1.72^de,1.07^d,0.80^b,0.89^c,0.57^b,3.54^c,4.20^c,0.46^bcd,0.54^abc,3.55^c,Sweetness Aftertaste [1]: 3.11^c
"rebaudioside F [Reb. F, reference compound]",0.88,1.13,0.98,1.35,1.14,0.29,0.81,0.00,0.18,3.28^a,2.64^bc,1.70^bc,0.75^b,0.88^c,0.57^b,3.89^c,5.38^b,0.46^bcd,0.59^abc,4.98^b,Sweetness Aftertaste [1]: 3.34^c
